How the values were obtained:
[1] = biological target: Acetylcholinesterase (Homo sapiens, UniProt P22303); assay type: functional
[2] = biological target: T1, Alpha-2A adrenergic receptor (Homo sapiens, UniProt P08913)
T1 sequence (P08913 whole entry): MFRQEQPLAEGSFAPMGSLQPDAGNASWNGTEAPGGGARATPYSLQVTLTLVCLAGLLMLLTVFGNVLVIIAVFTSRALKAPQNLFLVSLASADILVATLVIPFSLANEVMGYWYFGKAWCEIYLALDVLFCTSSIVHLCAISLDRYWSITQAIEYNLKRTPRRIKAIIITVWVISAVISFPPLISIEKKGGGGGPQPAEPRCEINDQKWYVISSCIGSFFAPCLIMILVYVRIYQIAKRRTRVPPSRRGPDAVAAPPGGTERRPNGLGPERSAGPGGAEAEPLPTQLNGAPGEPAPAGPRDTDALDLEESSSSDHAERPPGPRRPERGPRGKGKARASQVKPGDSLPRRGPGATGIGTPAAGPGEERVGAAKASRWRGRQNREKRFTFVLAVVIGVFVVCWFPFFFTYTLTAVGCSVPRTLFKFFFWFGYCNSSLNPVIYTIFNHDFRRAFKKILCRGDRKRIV

[3] = biological target: D(1A) dopamine receptor (Homo sapiens, UniProt P21728)
D(1A) dopamine receptor, sequence (P21728 whole entry): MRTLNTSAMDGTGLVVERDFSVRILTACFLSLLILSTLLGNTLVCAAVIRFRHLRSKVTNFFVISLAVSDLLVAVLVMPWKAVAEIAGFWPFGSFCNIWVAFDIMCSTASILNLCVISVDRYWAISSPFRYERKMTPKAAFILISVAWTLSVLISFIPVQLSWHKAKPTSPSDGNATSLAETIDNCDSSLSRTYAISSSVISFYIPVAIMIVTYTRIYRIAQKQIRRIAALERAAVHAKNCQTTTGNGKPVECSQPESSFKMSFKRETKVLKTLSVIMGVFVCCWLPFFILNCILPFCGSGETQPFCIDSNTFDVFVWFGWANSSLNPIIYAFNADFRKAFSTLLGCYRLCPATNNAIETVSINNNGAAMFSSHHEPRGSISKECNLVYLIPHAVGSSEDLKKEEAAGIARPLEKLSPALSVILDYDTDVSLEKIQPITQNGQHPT

[4] = biological target: T2, D(3) dopamine receptor (Homo sapiens, UniProt P35462)
T2 sequence (P35462 whole entry): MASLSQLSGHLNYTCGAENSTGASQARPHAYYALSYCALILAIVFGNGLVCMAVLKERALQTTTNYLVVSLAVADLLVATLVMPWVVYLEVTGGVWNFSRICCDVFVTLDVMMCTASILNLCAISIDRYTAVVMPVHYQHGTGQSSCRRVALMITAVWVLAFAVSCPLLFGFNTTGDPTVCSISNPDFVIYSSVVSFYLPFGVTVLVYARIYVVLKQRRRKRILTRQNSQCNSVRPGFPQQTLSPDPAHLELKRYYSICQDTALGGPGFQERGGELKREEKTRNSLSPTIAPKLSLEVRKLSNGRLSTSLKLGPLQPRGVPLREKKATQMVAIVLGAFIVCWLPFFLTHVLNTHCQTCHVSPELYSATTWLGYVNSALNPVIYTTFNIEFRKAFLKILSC

[5] = biological target: Histamine H3 receptor (Homo sapiens, UniProt Q9Y5N1)
Histamine H3 receptor, sequence (Q9Y5N1 whole entry): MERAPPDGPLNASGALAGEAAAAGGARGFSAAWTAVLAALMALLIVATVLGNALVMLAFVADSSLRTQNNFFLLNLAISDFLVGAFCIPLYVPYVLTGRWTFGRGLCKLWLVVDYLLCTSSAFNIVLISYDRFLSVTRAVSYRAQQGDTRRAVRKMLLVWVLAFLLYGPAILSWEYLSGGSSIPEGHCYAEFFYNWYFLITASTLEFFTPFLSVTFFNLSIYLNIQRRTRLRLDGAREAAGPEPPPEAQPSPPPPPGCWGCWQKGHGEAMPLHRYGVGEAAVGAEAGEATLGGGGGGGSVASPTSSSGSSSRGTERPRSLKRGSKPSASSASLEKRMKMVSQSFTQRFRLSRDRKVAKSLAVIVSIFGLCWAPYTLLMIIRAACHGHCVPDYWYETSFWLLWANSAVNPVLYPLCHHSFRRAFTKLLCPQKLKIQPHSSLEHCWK

[6] = biological target: Melanocortin receptor 3 (Homo sapiens, UniProt P41968)
Melanocortin receptor 3, sequence (P41968 whole entry): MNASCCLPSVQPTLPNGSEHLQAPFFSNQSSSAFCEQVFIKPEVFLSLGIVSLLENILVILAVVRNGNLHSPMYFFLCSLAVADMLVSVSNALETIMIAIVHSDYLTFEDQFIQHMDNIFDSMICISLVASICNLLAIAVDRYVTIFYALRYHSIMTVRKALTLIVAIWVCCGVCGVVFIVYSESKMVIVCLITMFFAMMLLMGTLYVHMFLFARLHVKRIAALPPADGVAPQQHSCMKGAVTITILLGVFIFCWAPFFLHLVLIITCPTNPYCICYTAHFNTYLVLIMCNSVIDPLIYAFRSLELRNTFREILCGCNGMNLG

[7] = biological target: Mu-type opioid receptor (Homo sapiens, UniProt P35372)
Mu-type opioid receptor, sequence (P35372 whole entry): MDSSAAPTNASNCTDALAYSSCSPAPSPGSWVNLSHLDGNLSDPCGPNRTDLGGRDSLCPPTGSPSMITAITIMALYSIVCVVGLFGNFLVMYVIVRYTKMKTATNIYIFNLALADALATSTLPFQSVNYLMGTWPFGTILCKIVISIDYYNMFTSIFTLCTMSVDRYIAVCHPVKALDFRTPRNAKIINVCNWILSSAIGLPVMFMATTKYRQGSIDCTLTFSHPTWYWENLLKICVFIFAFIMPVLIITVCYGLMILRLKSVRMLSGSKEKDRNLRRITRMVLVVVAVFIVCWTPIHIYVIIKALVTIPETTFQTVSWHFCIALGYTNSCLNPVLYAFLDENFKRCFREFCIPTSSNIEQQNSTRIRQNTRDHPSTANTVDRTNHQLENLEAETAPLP

[8] = biological target: 3',5'-cyclic-AMP phosphodiesterase 4A (Homo sapiens, UniProt P27815); assay type: functional
3',5'-cyclic-AMP phosphodiesterase 4A, sequence (P27815 whole entry): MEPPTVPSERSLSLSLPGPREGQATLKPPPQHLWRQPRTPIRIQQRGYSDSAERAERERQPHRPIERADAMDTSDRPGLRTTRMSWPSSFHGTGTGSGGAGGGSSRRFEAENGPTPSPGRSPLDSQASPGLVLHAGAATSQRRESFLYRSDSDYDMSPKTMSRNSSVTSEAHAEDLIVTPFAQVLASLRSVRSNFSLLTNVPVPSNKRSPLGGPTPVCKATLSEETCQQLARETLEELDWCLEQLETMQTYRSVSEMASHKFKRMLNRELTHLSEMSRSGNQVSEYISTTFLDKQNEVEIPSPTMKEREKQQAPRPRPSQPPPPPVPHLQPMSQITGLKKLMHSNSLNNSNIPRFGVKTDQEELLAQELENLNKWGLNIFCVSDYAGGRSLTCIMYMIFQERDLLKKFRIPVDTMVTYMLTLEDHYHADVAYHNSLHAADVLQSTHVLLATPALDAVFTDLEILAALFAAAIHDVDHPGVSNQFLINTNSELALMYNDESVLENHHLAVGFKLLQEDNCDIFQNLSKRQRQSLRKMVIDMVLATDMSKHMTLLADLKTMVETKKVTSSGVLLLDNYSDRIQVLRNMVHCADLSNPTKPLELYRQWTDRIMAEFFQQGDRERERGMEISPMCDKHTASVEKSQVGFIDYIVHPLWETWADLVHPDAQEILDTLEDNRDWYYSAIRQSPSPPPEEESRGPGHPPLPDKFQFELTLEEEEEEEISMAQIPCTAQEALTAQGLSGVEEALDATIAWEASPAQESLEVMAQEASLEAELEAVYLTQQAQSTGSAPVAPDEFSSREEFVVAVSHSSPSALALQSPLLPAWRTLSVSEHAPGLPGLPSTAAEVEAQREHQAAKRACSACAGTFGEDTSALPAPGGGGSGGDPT

[9] = biological target: T3, Prostaglandin G/H synthase 1 (Rattus norvegicus, UniProt Q63921); assay type: functional
T3 sequence (Q63921 whole entry): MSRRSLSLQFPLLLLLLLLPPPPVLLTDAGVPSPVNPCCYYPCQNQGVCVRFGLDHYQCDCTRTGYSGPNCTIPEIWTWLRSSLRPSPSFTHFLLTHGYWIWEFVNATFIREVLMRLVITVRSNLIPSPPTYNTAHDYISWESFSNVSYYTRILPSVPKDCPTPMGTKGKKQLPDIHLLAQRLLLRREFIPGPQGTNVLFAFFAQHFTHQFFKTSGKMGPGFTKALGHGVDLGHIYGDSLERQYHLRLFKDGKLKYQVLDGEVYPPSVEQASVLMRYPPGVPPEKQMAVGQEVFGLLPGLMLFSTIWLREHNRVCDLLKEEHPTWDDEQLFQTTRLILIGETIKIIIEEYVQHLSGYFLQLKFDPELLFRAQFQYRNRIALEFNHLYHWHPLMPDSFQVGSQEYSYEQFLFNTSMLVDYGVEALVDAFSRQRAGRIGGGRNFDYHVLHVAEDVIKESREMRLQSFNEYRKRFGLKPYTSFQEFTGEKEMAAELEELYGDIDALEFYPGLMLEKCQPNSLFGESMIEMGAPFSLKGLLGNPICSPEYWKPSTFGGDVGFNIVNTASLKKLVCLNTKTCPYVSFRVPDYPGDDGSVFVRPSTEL

[10] = biological target: T4, Amine oxidase [flavin-containing] A (Homo sapiens, UniProt P21397); assay type: functional
T4 sequence (P21397 whole entry): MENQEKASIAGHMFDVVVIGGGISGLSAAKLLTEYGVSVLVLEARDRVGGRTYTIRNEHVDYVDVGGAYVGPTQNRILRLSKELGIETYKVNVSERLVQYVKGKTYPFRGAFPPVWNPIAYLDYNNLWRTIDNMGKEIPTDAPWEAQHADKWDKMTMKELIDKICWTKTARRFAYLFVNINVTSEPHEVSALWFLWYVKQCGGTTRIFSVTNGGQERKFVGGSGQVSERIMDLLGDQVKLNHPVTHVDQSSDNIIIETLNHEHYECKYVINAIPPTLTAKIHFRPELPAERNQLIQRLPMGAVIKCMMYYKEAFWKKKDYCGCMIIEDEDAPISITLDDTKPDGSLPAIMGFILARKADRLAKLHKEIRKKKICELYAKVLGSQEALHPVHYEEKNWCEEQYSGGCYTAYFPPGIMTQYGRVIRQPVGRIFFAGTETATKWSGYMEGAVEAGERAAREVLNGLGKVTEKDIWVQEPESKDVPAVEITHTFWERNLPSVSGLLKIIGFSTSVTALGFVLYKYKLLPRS

[11] = biological target: 5-hydroxytryptamine receptor 2B (Homo sapiens, UniProt P41595); assay type: functional, cell-based
5-hydroxytryptamine receptor 2B, sequence (P41595 whole entry): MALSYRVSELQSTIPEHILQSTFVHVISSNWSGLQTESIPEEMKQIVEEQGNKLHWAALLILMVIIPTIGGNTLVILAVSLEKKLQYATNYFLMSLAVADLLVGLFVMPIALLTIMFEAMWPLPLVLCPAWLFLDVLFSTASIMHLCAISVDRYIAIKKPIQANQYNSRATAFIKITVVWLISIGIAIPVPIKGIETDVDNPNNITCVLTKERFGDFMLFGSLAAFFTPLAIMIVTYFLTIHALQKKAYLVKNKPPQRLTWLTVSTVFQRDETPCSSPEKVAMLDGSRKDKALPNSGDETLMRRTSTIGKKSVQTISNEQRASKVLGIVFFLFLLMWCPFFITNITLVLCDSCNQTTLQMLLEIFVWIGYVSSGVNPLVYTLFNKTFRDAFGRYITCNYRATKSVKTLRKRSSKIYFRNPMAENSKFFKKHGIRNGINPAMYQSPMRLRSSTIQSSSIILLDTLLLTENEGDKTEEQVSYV

[12] = biological target: T2, D(3) dopamine receptor; remark: listed apart in the source
[13] = biological target: T1, Alpha-2A adrenergic receptor; assay type: functional, cell-based

Measured: AC50
Note: assay procedure not described here.

Acetylcholinesterase, sequence (P22303 whole entry): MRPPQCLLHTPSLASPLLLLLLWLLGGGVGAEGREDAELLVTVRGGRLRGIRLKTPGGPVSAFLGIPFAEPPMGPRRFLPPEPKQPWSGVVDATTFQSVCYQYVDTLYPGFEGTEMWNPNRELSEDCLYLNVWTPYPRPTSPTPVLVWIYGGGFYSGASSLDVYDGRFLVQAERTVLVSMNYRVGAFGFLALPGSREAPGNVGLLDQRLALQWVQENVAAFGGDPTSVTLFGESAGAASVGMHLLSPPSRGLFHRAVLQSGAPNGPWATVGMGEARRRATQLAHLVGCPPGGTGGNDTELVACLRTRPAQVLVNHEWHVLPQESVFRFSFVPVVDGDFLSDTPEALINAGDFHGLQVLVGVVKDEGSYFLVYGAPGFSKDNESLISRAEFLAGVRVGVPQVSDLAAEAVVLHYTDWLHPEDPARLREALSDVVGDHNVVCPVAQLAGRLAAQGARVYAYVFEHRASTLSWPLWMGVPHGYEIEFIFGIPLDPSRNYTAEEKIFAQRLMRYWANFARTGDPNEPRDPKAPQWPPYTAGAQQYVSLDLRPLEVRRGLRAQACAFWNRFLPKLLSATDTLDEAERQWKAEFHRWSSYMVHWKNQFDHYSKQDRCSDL

O=C(O)c1cccc(-c2noc(-c3ccccc3F)n2)c1
> 30 µM: [1] | [2] | [3] | [4] | [5] | [6] | [7] | [8] | [9]
5.3 µM: [10]

CS(=O)(=O)Nc1cc2occ(NC=O)c(=O)c2cc1Oc1ccccc1 [IGURATIMOD]
1.75 µM: [8]
> 30 µM: [1] | [2] | [3] | [4] | [5] | [11] | [6] | [7] | [9] | [10] | [12]

CC(=O)O[C@]1(C(C)=O)CC[C@H]2[C@@H]3C[C@H](C)C4=CC(=O)CC[C@]4(C)[C@H]3CC[C@@]21C [MEDROXYPROGESTERONE ACETATE]
> 30 µM: [1] | [2] | [3] | [4] | [5] | [6] | [7] | [8] | [9]

C1N2CN3CN1CN(C2)C3 [METHENAMINE]
> 30 µM: [1] | [2] | [3] | [4] | [5] | [7] | [8]

Cn1cc[nH]c1=S [METHIMAZOLE]
> 30 µM: [1] | [2] | [3] | [4] | [5] | [7] | [8]

CO[C@@]12[C@H](COC(N)=O)C3=C(C(=O)C(C)=C(N)C3=O)N1C[C@@H]1N[C@@H]12 [MITOMYCIN]
> 30 µM: [1] | [2] | [3] | [4] | [5] | [7] | [8]

O=[N+]([O-])c1cncn1CCN1CCOCC1 [NIMORAZOLE]
> 30 µM: [1] | [2] | [3] | [4] | [5] | [7] | [8]

NC(=O)c1cccc2cn(-c3ccc([C@@H]4CCCNC4)cc3)nc12 [NIRAPARIB]
26 µM: [5]
> 30 µM: [1] | [2] | [3] | [4] | [7] | [8]

COc1ccc2c(c1)OC(C)(C)C(c1ccccc1)C2c1ccc(OCCN2CCCC2)cc1 (stereo unspecified) [ORMELOXIFENE]
10.6 µM: [2]
6.98 µM: [3]
0.785 µM: [5]
0.205 µM: [4]
> 30 µM: [1] | [8]
11.2 µM: [7]

Oc1cccc2cccnc12 [OXYQUINOLINE]
> 30 µM: [1] | [2] | [3] | [4] | [5] | [7] | [8]

Nc1nc2c(ncn2CCC(CO)CO)c(=O)[nH]1 [PENCICLOVIR]
> 30 µM: [1] | [2] | [3] | [4] | [5] | [7] | [8]

CC[C@@H]1/C=C(\C)C[C@H](C)C[C@H](OC)[C@H]2O[C@@](O)(C(=O)C(=O)N3CCCC[C@H]3C(=O)O[C@H](/C(C)=C/[C@@H]3CC[C@H](Cl)[C@H](OC)C3)[C@H](C)[C@@H](O)CC1=O)[C@H](C)C[C@@H]2OC [PIMECROLIMUS]
> 30 µM: [1] | [2] | [3] | [4] | [5] | [7] | [8]

CC(C(=O)O)c1ccc2c(c1)Cc1cccnc1O2 (stereo unspecified) [PRANOPROFEN]
> 30 µM: [1] | [2] | [3] | [4] | [5] | [7] | [8]

O=C(O)CCn1c2c(c3ccccc31)C[C@H](NS(=O)(=O)c1ccc(F)cc1)CC2 [RAMATROBAN]
> 10 µM: [13] | [11] | [10]
> 30 µM: [1] | [2] | [3] | [4] | [5] | [6] | [7] | [8] | [9] | [12]

CCO[C@@H](Cc1ccc(OCCn2c(C)ccc2-c2ccc(SC)cc2)cc1)C(=O)O [SAROGLITAZAR]
> 30 µM: [1] | [2] | [3] | [5] | [7]
11.1 µM: [8]
22.2 µM: [4]

CN1CCC2=C(C1)c1ccccc1Cc1ccccc12 [SETIPTILINE]
0.0882 µM: [3]
12.8 µM: [7]
0.543 µM: [4]
> 30 µM: [1] | [5] | [8]
0.0996 µM: [2]

COc1ccc(CCC(C)NCC(O)c2ccc(O)c([S+](C)[O-])c2)cc1 (stereo unspecified) [SULFINALOL]
> 30 µM: [1] | [2] | [3] | [4] | [5] | [7] | [8]

COc1cc(NCc2ccc3nc(N)nc(N)c3c2C)cc(OC)c1OC [TRIMETREXATE]
7.19 µM: [8]
1.2 µM: [7]
1.94 µM: [3]
1.62 µM: [1]
> 30 µM: [2] | [5]
2.67 µM: [4]

C[C@@H]1O[C@@H](OC[C@H]2O[C@@H](Oc3c(-c4ccc(OCCO)c(OCCO)c4)oc4cc(OCCO)cc(O)c4c3=O)[C@H](O)[C@@H](O)[C@@H]2O)[C@H](O)[C@H](O)[C@H]1O [TROXERUTIN]
> 30 µM: [1] | [2] | [3] | [4] | [5] | [7] | [8]

COc1cc2c(cc1OC)[C@H]1C[C@@H](OC(=O)[C@@H](N)C(C)C)[C@H](CC(C)C)CN1CC2 [VALBENAZINE]
21.6 µM: [7]
> 30 µM: [1] | [2] | [3] | [4] | [5] | [8]
